The source of these data is patent US20250154180A1, “CRK-LIKE (CRKL) ADAPTOR PROTEIN INHIBITORS AND METHODS OF MAKING AND USING THE SAME” (Rutgers, The State University of New Jersey, priority 2022, published 2025).

In data set [1] the test system is MDA-MB-468 cells. Briefly: Annexin V/PI apoptosis, MDA-MB-468. As to conditions: 10 uM, 24 hours. It is filed as cell-based. The protocol:
Annexin V/PI Staining—Experimental cells were collected, washed with 1×PBS, resuspended in the binding buffer, and stained with an Annexin V-FITC assay Kit (Millipore Sigma). The cells were incubated with 50 μg/ml Annexin V in 1× binding buffer at room temperature for 15 minutes, then 10 μg/ml propidium iodide for another 15 minutes and analyzed by flow cytometry (EPICS XL). Annexin V-positive/PI-negative cells were considered early apoptotic, cells with both Annexin V and PI-positive to be late apoptotic, and Annexin V negative but PI-positive to be “necrotic.” The percent of apoptosis was calculated as the sum of the percentages of both early and late apoptotic cells.
To figure out the features of cytotoxic effects of Pomiferin on breast cancer cells. Pomiferin-treated breast cancer cells were stained with an Annexin V/PI kit and measured them with Flow Cytometry.

Data set [2] relates to CD147-CAR-NK killing in BXPC3 cells. Briefly: Cr51 release assay, CD147-CAR-NK killing of BXPC3. The class given is cell-based. As to conditions: 1 uM overnight. Here is the method: In this example, activity of NC5 was evaluated for PBNK and CD147-CAR-NK killing in BXPC3 cells. PBNK or CD147-CAR-NK cells were incubated with 1 uM NC5 overnight, then cells were harvested for Cr51 release assay to check cell cytotoxicity. […] The star symbol indicates the significance of vehicle vs. NC5 of the indicated E:T ratios. *p<0.05, **p<0.01, n=3.

The test system of data set [3] is TM00089 TNBC patient-derived tumor. Briefly: TNBC patient-derived xenograft (PDX) TM00089 model. It is filed as in vivo, mice. An excerpt:
For the patient-derived xenograft (PDX) model, a cohort of mice engrafted with the TNBC tumor model #TM00089-Breast-Tumor Markers: TNBC ER−(estrogen receptor-negative)/PR—(progesterone receptor-negative)/HER2—(human epidermal growth factor receptor two negative), BRCA1 V757fs (4 to 6-weeks-old females) were obtained from Jackson Laboratories (Bar Harbor, ME). PDX models were generated by surgically engrafting tumor cells into the mammary fat pad of NSG™ (nonobese diabetic, severe combined immunodeficiency, interleukin-2 receptor gamma chain-null) mice.
To determine inhibition efficacy in vivo of Pomiferin in the TNBC clinical patient tumor, the therapeutic efficacy of Pomiferin in a patient-derived tumor xenograft mouse from the Jackson Laboratory PDX Live™ library was evaluated. The TM00089 breast invasive ductal carcinoma was selected, characterized as TNBC ER^−/PR^−/HER2^−, BRCA1^V757fs since TNBC tumors with BRCA1 mutations are generally the most aggressive and have the worst prognosis within the first five years after diagnosis compared to other types of breast cancers.
A general note: Xenograft models place foreign cells or tissue in a host animal.

Data set [4] deals with CrkL (phosphorylation at Y207 by Ab1). Briefly: AlphaScreen of Ab1 phosphorylation of CrkL at Y207. The class given is biochemical. As to conditions: positive hits defined as a 50% decrease in Alpha signal vs DMSO. In general terms: In Alpha technology, singlet oxygen from a donor bead excites a nearby acceptor bead.
For data set [5], the system named is breast cancer cells (MCF7, MDA-MB-453, MDA-MB-231, MDA-MB-231-GFP-LUC, Hs578t, MDA-MB-468). Briefly: MTT assay, breast cancer cell lines (TNBC and non-TNBC). The class given is cell-based. The note with it: 72 h, three days after treatment. Here is the method: Peripheral blood mononuclear cells (PBMCs, line with the symbol □) were used to determine the specificities of the cytotoxic effects of Pomiferin. The survival curve of PBMC-average is from four different healthy donors. Cells (1×10^3−3×10^3) were plated in 96-well plates, and cell growth was determined by MTT assay three days after cells were treated with Pomiferin at the indicated doses.
(§1) MTT assay—The MTT assay was used to detect cell proliferation. Briefly, cells were plated in a 96-well plate at a density of 50,000 cells/well in 200 μl of culture medium with candidate drugs to be tested (DMSO as a negative control). The treated cells were incubated for four hours a 37° C. with a 5% CO2 incubator to allow dark crystals to form at the bottom of the wells. After culturing for 48 hours, 10 ml of MTT reagent was added to each well and mixed gently for one minute. After aspirating the culture medium from each well, 100 μl of crystal dissolving solution was added to each well and incubated for 10 minutes at RT. The signal was quantified by measuring the absorbance in each sample at 570 nm using a microplate reader.
On the technique in general: Tetrazolium dyes change colour on reduction, which living cells bring about.

Data set [6] concerns HCC HepG2 cells. Briefly: MTT proliferation assay, HepG2. The class given is cell-based. As to conditions: 48 hours. The protocol: as §1
Data set [7] has as its system MDA-MB-468 cells. Briefly: MTT proliferation assay, MDA-MB-468. It is filed as cell-based. The protocol:
as §1, with “After culturing for 48 hours, 10 ml of MTT reagent was added to each well and mixed gently for one minute.” left out
Cell proliferation was first determined by MTT assay as confirmation. […] CrkL is known to mediate the activation of both Raf/ERK and PI3K pathways. So, proteins that relate to these two pathways were utilized.

The test system of data set [8] is MDA-231-GFP-LUC cells. Briefly: MTT assay, MDA-231-GFP-LUC. The note with it: five M Pomiferin for three days. The class given is cell-based. Here is the method:
as §1, with “After culturing for 48 hours, 10 ml of MTT reagent was added to each well and mixed gently for one minute.” left out
To further test the inhibitory specificity of Pomiferin for specific breast cancer cell lines, The survival percentage was compared between different hematopoietic cancer cell lines and healthy PBMCs.

For data set [9], the system named is P-ERK1/2 in PBMC. Briefly: Western blotting, PBMC. The note with it: NC5 1, 5, 10 uM, 24 hours. The class given is cell-based, human.
Data set [10] deals with BXPC3 tumor. Briefly: PDAC BXPC3 xenograft model. The class given is in vivo, NSG mice. The protocol: For HCC or PDAC xenograft models, NSG mice 8-week-old) were injected subcutaneously with 1×10^6 HepG2 or BXPC3 tumor cells mixed with Matrigel.
To further test whether the tumor growth inhibition effect of NC5 applied to other solid tumors, the HCC-Sk-Hep1cell line and PDAC-BXPC3 cell line xenograft models were used. Subcutaneous injection of 1.5×10^6 SK-Hep1 or BXPC3 cells in NSG mice, Six-ten days after tumor cell injection, the palpable tumor in NSG mice was confirmed.

Consider `CC(C)=CCc1c2c(c3occ(-c4ccc(O)c(O)c4)c(=O)c3c1O)C=CC(C)(C)O2` [Pomiferin, 3′,4′,5-Trihydroxy-6″,6″-dimethyl-6-(3-methylbut-2-en-1-yl)-6″H-pyrano[2″,3″:7,8]isoflavone], for which the “percentage of apoptotic cells” value in [1] is “significantly increased”. Moreover, the “CD147-CAR-NK killing (Cr51 release)” value in [2] is reported as “increased”. The tumor growth result in [3] (5.0 μg/g Pomiferin vs vehicle) is “significantly more inhibited”; in [10] (Pomiferin administered orally) it was “suppressed”. For the same compound, the “median survival, fold longer than vehicle control” value in [3] (Pomiferin 5 μg/g) is on record as 1.4 fold; in [10] (mouse, in vivo), 1.2 fold. Also, the median survival stood at 53 days in [3] (Pomiferin 5 μg/g, vehicle 39 days) and 43.5 days in data set [10] (5.0 μg/g oral, vehicle 37 days). Further, the body weights entry in [3] (vs vehicle, during drug treatment period) is given as “not significantly different”. The “AlphaScreen hit (inhibition of Crk phosphorylation)” value in data set [4] was “identified hit”. In [5], the IC50 (as a rule, the concentration that gives 50% inhibition) lay in the range of 1.3 to 3.6 µM. The “concentration at which HepG2 cell proliferation starts to be significantly inhibited” value in [6] is “one”. Besides, the “cell proliferation (MTT)” value was “significantly inhibited cell proliferation” in data set [7] (1 uM, 5 uM and 10 uM, 24 hours); “inhibited cell proliferation” in [7] (2.5 μM, 48 hours, vs DMSO). Moreover, in data set [8], the “sensitivity to Pomiferin (survival percentage, MTT)” value is reported as “most sensitive cell to Pomiferin treatment”. Further, in [9], the “P-ERK1/2 levels (Western blotting)” value is listed as “minimal changes”.
